According to ChEMBL document CHEMBL1155927, “Synthesis and evaluation of 5'-modified 2'-deoxyadenosine analogues as anti-hepatitis C virus agents” (Bioorg Med Chem Lett, 2008):
pEC50: −log10 of the molar value.

How the values were obtained:
[1] = tested on: Hepatitis C virus; assay: Antiviral activity against HCV assessed as inhibition of viral RNA replication in Huh7 cells; format: functional, organism-based, Hepacivirus hominis; conditions: Huh-7
[2] = Cytotoxicity in human Huh7 cells by XTT assay; format: cell-based, Huh-7

| Structure (SMILES) | pEC50 [1] | CC50 [2] [µM] |
| --- | --- | --- |
| Nc1ncnc2c1ncn2[C@H]1C[C@H](O)[C@@H](CCC(=O)c2ccccc2)O1 | < 3.70 |  |
| CON(C)C(=O)CC[C@H]1O[C@@H](n2cnc3c(N)ncnc32)C[C@@H]1O | < 3.70 |  |
| COC(=O)CC[C@H]1O[C@@H](n2cnc3c(Cl)ncnc32)C[C@@H]1O | 4.48 | > 200 |

The next lines start with results.

| pEC50 [1] | Structure (SMILES) | CC50 [2] [µM] |
| --- | --- | --- |
| 4.39 | CON(C)C(=O)CC[C@H]1O[C@@H](n2cnc3c(Cl)ncnc32)C[C@@H]1O | > 200 |
| 4.82 | O=C(CC[C@H]1O[C@@H](n2cnc3c(Cl)ncnc32)C[C@@H]1O)c1ccccc1 | 76.3 |
| < 3.70 | COC(=O)CC[C@H]1O[C@@H](n2cnc3c(N)ncnc32)C[C@@H]1O |  |
